# Source: patent publication US12274703B2, “Compositions and methods of treatment for neurological disorders comprising a dementia” (Gliapharm SA, priority 2017, dated 2025)
# What was measured:
# [1] = test system: cerebral extracellular lactate; assay: In vivo pharmacodynamics - lactate biosensors; parameters: species or system mouse; conditions: 100 mg/kg per os; AUC ratio vs vehicle
# Experimental: Extracellular levels of lactate were monitored in vivo using lactate biosensors (Pinnacle Technology), according to the manufacturer's instructions. Cannulae were surgically implanted in mice cerebral motor cortex areas M1/M2 (coordinates: +1.94 mm (to bregma), lateral −1.4 mm (to mideline), ventral −1.0 mm (to dura)) 5-7 days before administration of the compounds. Drugs were administered per os as previously described, and cerebral levels of extracellular lactate were dynamically recorded for 6 hours. Mice were administered vehicle alone first, followed 3 hours later by vehicle or drug (10 or 100 mg/kg). Area Under the Curve (AUC) quantifying the fluctuations of extracellular lactate concentrations for each of the compound tested was calculated using Graphad Prism and the ratio of AUC after drug over Vehicle administration was calculated. Groups of 8 male mice were used for each condition.
# To measure biological effect of lead molecules in vivo in the brain, lactate levels were quantified after administration of the drug by using lactate biosensors implanted in the cortex of freely moving mice.
# primary astrocytes = assay: Intracellular glycogen quantification, Example 2; format: cell-based, mouse; conditions: 10 μM, 3 h (GP-0157: 0.1, 1, 10 μM)
# Experimental: Primary cultures of cerebrocortical astrocytes were obtained from 1 to 2-day-old OF1 mouse pups (Charles River). Briefly, cortices were isolated and minced in small pieces under a dissecting microscope. The cells were incubated for 30 min at 37° C. in a solution containing 20 U/ml papain, 1 mM L-cysteine and 10 kU/ml DNase I. After dissociation, papain activity was stopped by the addition of fetal calf serum (FCS). Single-cell suspension was then obtained by mechanical dissociation, which consisted in cells trituration in a DMEM D7777 medium supplemented with 44 mm NaHCO3, 10 ml/L antibiotic/antimycotic solution and 10% FCS. The cells were seeded at an average density of ˜10,000 cells/cm2 on poly-D-lysine coated 96- or 12-well culture plates, depending on their use, and grown in DMEM D7777 medium supplemented with 44 mm NaHCO3, 10 ml/L antibiotic/antimycotic solution and 10% FCS at 37° C. in a humidified atmosphere containing 5% CO2/95% air. Culture medium was renewed twice a week. Cells were stimulated and harvested between DIV14 and DIV17, when confluence and cell growth were optimal.
# Astrocytes grown on 12-well plates were used for intracellular glycogen quantifications. Cells were stimulated with Vehicle (DMSO), with compounds of the invention (10 μM), or with a positive control for 180 min, at 37° C. 5% CO2/95% air in D5030 medium complemented with 5 mM D-glucose and 44 mM sodium bicarbonate (pH 7.2). […] At the end of the stimulation, medium was removed and replaced with 600 μl of 30 mM Tris HCl, and stored at −20° C.
# First, the amount of proteins in each sample was quantified to assess whether harvested astrocytes from primary cell cultures yielded enough and equivalent amounts of proteins on each replicates. Proteins were quantified using the micro BCA Protein Assay kit (Thermo Scientific), according to manufacturer's instructions. Next, intracellular glycogen concentrations were quantified using a 250 μl-aliquot of the same stimulated, thawed, and sonicated cell lysate. After an incubation period of 30 min at 90° C. and 400 rpm, 28 μl of a 0.1M acetic acid/sodium acetate buffer (pH 4.6) was added to each lysate aliquots, which were then separated in two. Each split aliquots received either 5 μl of amyloglucosidase or H2O, and incubated for 120 min at 37° C. After centrifugation at 16,000 G for 5 min, 20 μl of supernatant were placed in a 96-well plate, to which 150 μl of a mix containing 0.67 mM ATP, 0.67 mM NADP, 1.8% hexokinase/glucose-6-phosphate dehydrogenase in a 0.1M Tris Buffer-HCl/3.3 mM magnesium (pH 8.1) buffer was added. Fluorescence intensity (340 nm excitation/440 nm emission) was measured using a Safire 2 spectrophotometer. Glucose concentrations were assessed relative to a glucose standard curve, and glycogen concentrations were calculated by subtracting glucose values of samples that had received amyloglucosidase (i.e. that had degraded their glycogen stores) to samples that had not. Intracellular levels of glycogen, which is the main source of glucose storage in the brain, were analyzed in primary astrocytes after treatment with compounds of interest (10 μM, 3 h) (FIG. 5B), and compound GP-0157 (0.1, 1, 10 μM, 3 h) (FIG. 18).
# astrocytes = assay: Intracellular glycogen quantification; format: cell-based, mouse; conditions: CDC54K hits; 10 μM, 3 h
compound,measurement,setting,value
CC(=O)N1CCc2sc(S(=O)(=O)N3CCN(c4ccccc4C)CC3)cc2C1 [P025-0159],Cerebral lactate,[1],Significant increase
same,Mobilization of intracellular glycogen,primary astrocytes,significantly enhance
same,Glycogen (statistical significance of glycogen degradation),astrocytes,ns
COc1cc(C)c(Cl)cc1S(=O)(=O)NCc1ccncc1 [T5580243],Cerebral lactate,[1],Significant increase
same,Glycogen (statistical significance of glycogen degradation),astrocytes,ns
N#Cc1ccc(C(=O)N2CCC(Nc3ncnc4c3CCC4)C2)cc1 (stereo not shown) [T636-2387],Cerebral lactate,[1],Significant increase
same,Mobilization of intracellular glycogen,primary astrocytes,significantly enhance
same,Glycogen (statistical significance of glycogen degradation),astrocytes,ns
CCn1nccc1-c1csc(S(=O)(=O)Nc2ccc(Cl)cc2F)c1 [L924-1031],Mobilization of intracellular glycogen,primary astrocytes,significantly enhance
O=C1CCCN1c1ccc(S(=O)(=O)Nc2cccc(/C=C/c3ccccn3)c2)cc1 [T5644989],Mobilization of intracellular glycogen,primary astrocytes,significantly enhance
COc1ccccc1[N+]1=C2CCCCCN2C(O)(c2ccc(C)cc2)C1 (stereo not shown) [K404-0834],Mobilization of intracellular glycogen,primary astrocytes,significantly enhance
Cc1nc2ccc(NS(=O)(=O)c3cccc(F)c3)cc2s1 [T6937001],Mobilization of intracellular glycogen,primary astrocytes,significantly enhance
same,Glycogen (statistical significance of glycogen degradation),astrocytes,ns
Cc1ccccc1NC(=O)C1CCCN(c2ncnc3oc(C)c(C)c23)C1 (stereo not shown) [F228-0422],Mobilization of intracellular glycogen,primary astrocytes,significantly enhance
O=S(=O)(Nc1cc(F)cc(F)c1)c1ccc2ccccc2c1 [T5884038],Mobilization of intracellular glycogen,primary astrocytes,significantly enhance
CCc1nc(-c2csc(S(=O)(=O)NCc3ccc4c(c3)OCO4)c2)no1 [L287-0468],Mobilization of intracellular glycogen,primary astrocytes,significantly enhance
c1ccc2c(c1)CCN(c1ncnc3sccc13)C2 [T0517-8250],Mobilization of intracellular glycogen,primary astrocytes,significantly enhance
same,Glycogen (statistical significance of glycogen degradation),astrocytes,ns
COc1ccc(Nc2nc(N3CCOCC3)c3ccccc3n2)cc1.Cl [T0508-5190],Mobilization of intracellular glycogen,primary astrocytes,significantly enhance
